Experimental data reported in ChEMBL document CHEMBL5143521, “Identification of a selective BRD4 PROTAC with potent antiproliferative effects in AR-positive prostate cancer based on a dual BET/PLK1 inhibitor” (Eur J Med Chem, 2022).
Active and inactive are the calls of the source. The rule behind the calls is not given here.

Columns and labels:
[1] = target: T1, Protein cereblon/Bromodomain-containing protein 4 (Homo sapiens) (UniProt O60885+Q96SW2); assay: Protac activity at BRD4/CRBN in AR-positive human VCaP cells assessed as degradation of BRD4 by measuring downregulation of BRD4 expression level at 1 nM by Western blot analysis; type: cell-based; conditions: time 2-48 hrs, TDE = time-dependent effect
T1 sequence (Q96SW2 whole entry, looked up, other chains not shown): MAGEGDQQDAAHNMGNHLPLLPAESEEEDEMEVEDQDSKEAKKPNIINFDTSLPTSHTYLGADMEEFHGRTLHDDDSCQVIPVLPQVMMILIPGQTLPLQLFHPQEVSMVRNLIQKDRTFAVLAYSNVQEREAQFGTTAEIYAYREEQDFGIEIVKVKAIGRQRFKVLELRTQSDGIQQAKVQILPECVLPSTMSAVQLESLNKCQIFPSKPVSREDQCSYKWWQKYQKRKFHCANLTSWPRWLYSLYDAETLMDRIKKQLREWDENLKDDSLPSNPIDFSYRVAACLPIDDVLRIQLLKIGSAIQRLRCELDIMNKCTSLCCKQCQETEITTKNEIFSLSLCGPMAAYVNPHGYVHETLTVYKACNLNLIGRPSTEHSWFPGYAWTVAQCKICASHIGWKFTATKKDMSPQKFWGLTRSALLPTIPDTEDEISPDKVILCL

[2] = target: T2, Serine/threonine-protein kinase PLK1 (Homo sapiens, UniProt P53350); assay: Inhibition of recombinant full length human PLK1 using casein as substrate incubated for 40 mins in presence of [gamma-33P]-ATP by radiometric scintillation counting method
T2 sequence (P53350 whole entry): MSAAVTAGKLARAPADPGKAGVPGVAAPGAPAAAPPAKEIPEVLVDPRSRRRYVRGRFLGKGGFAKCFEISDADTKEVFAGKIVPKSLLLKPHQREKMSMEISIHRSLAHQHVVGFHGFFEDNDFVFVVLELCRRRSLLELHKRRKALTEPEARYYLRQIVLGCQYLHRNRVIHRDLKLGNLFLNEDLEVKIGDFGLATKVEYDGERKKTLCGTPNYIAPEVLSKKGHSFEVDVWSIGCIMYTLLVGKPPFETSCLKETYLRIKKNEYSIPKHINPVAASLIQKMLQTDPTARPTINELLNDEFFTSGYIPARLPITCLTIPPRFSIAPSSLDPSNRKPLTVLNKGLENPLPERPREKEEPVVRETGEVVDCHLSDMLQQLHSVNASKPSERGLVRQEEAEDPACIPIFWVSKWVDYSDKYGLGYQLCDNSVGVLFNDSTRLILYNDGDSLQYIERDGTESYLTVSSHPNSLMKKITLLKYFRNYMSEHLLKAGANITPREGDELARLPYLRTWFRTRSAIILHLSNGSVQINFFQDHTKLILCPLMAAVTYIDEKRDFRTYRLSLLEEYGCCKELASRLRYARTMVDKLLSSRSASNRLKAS

MV4-11 = assay: Antiproliferative activity against human MV4-11 cells assessed as reduction in cell viability measured after 4 days by MTT assay; type: functional, cell-based; conditions: MV4-11, 96 h
DU-145 = assay: Antiproliferative activity against AR-negative human castration resistant DU-145 cells assessed as reduction in cell viability measured after 4 days by MTT assay; type: functional, cell-based; conditions: DU-145, 96 h
PC-3 = assay: Antiproliferative activity against AR-negative human castration resistant PC-3 cells assessed as reduction in cell viability measured after 4 days by MTT assay; type: functional, cell-based; conditions: PC-3, 96 h
VCaP [3] = assay: Antiproliferative activity against AR-positive human VCaP cells assessed as reduction in cell viability measured after 4 days by MTT assay; type: functional, cell-based; conditions: 96 h
LNCaP [4] = assay: Antiproliferative activity against AR-positive harmone sensitive human LNCaP cells assessed as reduction in cell viability measured after 4 days by MTT assay; type: functional, cell-based; conditions: 96 h
CWR22R [5] = assay: Antiproliferative activity against AR-positive human 22Rv1 cells assessed as reduction in cell viability at 100 to 300 nM incubated for 3 days followed by compound washout and measured after 8 days; type: functional; conditions: dose 100-300 nM, time 3 day
[6] = target: T1, Protein cereblon/Bromodomain-containing protein 4 (Homo sapiens); assay: Protac activity at BRD4/CRBN in AR-positive harmone sensitive human LNCaP cells assessed as degradation of BRD4 by measuring downregulation of BRD4 expression level at 1 nM by Western blot analysis; type: cell-based; conditions: time 2-48 hrs, TDE = time-dependent effect
[7] = target: T1, Protein cereblon/Bromodomain-containing protein 4 (Homo sapiens); assay: Protac activity at BRD4/CRBN in AR-positive human 22Rv1 cells assessed as degradation of BRD4 by measuring downregulation of BRD4 expression level at 1 nM by Western blot analysis; type: cell-based; conditions: time 2-48 hrs, TDE = time-dependent effect
LNCaP [8] = assay: Downregulation of c-Myc […] expression level in AR-positive harmone sensitive human LNCaP cells at 1 nM by Western blot analysis; type: functional, cell-based; conditions: time 2-48 hrs, TDE = time-dependent effect
CWR22R [9] = assay: Downregulation of c-Myc […] expression level in AR-positive human 22Rv1 cells at 1 nM by Western blot analysis; type: functional, cell-based; conditions: time 2-48 hrs, TDE = time-dependent effect
VCaP [10] = assay: Downregulation of c-Myc […] expression level in AR-positive human VCaP cells at 1 nM by Western blot analysis; type: functional, cell-based; conditions: time 2-48 hrs, TDE = time-dependent effect
[11] = target: T1, Protein cereblon/Bromodomain-containing protein 4 (Homo sapiens); assay: Protac activity at BRD4/CRBN in AR-positive human VCaP cells assessed as degradation of BRD4 by measuring downregulation of BRD4 expression level measured after 24 hrs by Western blot analysis; type: cell-based; conditions: dose 1-10000 nM, DDE = dose-dependent effect
VCaP [12] = assay: Downregulation of c-Myc […] expression level in AR-positive human VCaP cells measured after 24 hrs by Western blot analysis; type: functional, cell-based; conditions: dose 1-10000 nM, DDE = dose-dependent effect
[13] = target: T1, Protein cereblon/Bromodomain-containing protein 4 (Homo sapiens); assay: Protac activity at BRD4/CRBN in AR-negative human castration resistant DU-145 cells assessed as degradation of BRD4 by measuring downregulation of BRD4 expression level at 1 nM by Western blot analysis; type: cell-based; conditions: time 2-48 hrs, TDE = time-dependent effect
[14] = target: T1, Protein cereblon/Bromodomain-containing protein 4 (Homo sapiens); assay: Protac activity at BRD4/CRBN in AR-negative human castration resistant DU-145 cells assessed as degradation of BRD4 by measuring downregulation of BRD4 expression level measured after 24 hrs by Western blot analysis; type: cell-based; conditions: dose 1-10000 nM, DDE = dose-dependent effect
VCaP [15] = assay: Downregulation of c-Myc mRNA expression level in AR-positive human VCaP cells at 100 nM measured after 24 hrs by RT-qPCR analysis; type: functional, cell-based
[16] = target: T2, Serine/threonine-protein kinase PLK1; assay: Inhibition of PLK1 in AR-positive human 22Rv1 cells at 100 nM measured after 3 hrs in presence of cycloheximide by Western blot analysis; type: cell-based
[17] = target: T1, Protein cereblon/Bromodomain-containing protein 4 (Homo sapiens); assay: Protac activity at BRD4/CRBN in AR-positive human VCaP cells assessed as degradation of BRD4 at 1 uM measured after 24 hrs in presence of MG-132 by Western blot analysis; type: cell-based
VCaP [18] = assay: Downregulation of AR protein expression in AR-positive human VCaP cells at 100 nM measured after 48 hrs by Western blot analysis; type: functional, cell-based
VCaP [19] = assay: Downregulation of PSA gene expression in AR-positive human VCaP cells at 100 nM measured after 24 hrs by RT-qPCR analysis; type: functional, cell-based
VCaP [20] = assay: Downregulation of TMPRSS2 gene expression in AR-positive human VCaP cells at 100 nM measured after 24 hrs by RT-qPCR analysis; type: functional, cell-based
VCaP [21] = assay: Downregulation of ERG gene expression in AR-positive human VCaP cells at 100 nM measured after 24 hrs by RT-qPCR analysis; type: functional, cell-based
VCaP [22] = assay: Downregulation of FKBP5 gene expression in AR-positive human VCaP cells at 100 nM measured after 24 hrs by RT-qPCR analysis; type: functional, cell-based
VCaP [23] = assay: Downregulation of BMPR1B gene expression in AR-positive human VCaP cells at 100 nM measured after 24 hrs by RT-qPCR analysis; type: functional, cell-based
CWR22R [24] = assay: Induction of cell cycle arrest in AR-positive human 22Rv1 cells assessed as accumulation of cells at G0/G1 phase at 100 to 1000 nM measured after 72 hrs by flow cytometry analysis; type: functional, cell-based; conditions: dose 100-1000 nM
CWR22R [25] = assay: Induction of cell cycle arrest in AR-positive human 22Rv1 cells assessed as downregulation of CDK2 expression at 100 to 1000 nM measured after 72 hrs by Western blot analysis; type: functional, cell-based; conditions: dose 100-1000 nM
CWR22R [26] = assay: Induction of cell cycle arrest in AR-positive human 22Rv1 cells assessed as downregulation of CDK6 expression at 100 to 1000 nM measured after 72 hrs by Western blot analysis; type: functional, cell-based; conditions: dose 100-1000 nM
CWR22R [27] = assay: Induction of cell cycle arrest in AR-positive human 22Rv1 cells assessed as downregulation of cyclin D1 expression at 100 to 1000 nM measured after 72 hrs by Western blot analysis; type: functional, cell-based; conditions: dose 100-1000 nM
CWR22R [28] = assay: Induction of cell cycle arrest in AR-positive human 22Rv1 cells assessed as downregulation of cyclin E expression at 100 to 1000 nM measured after 72 hrs by Western blot analysis; type: functional, cell-based; conditions: dose 100-1000 nM
CWR22R [29] = assay: Induction of cell cycle arrest in AR-positive human 22Rv1 cells assessed as downregulation of cyclin B1 expression at 100 to 1000 nM measured after 72 hrs by Western blot analysis; type: functional, cell-based; conditions: dose 100-1000 nM
CWR22R [30] = assay: Induction of apoptosis in AR-positive human 22Rv1 cells assessed as increase in early apoptotic cells measured after 72 hrs by Annexin V-FITC/PI staining based flow cytometry method; type: functional, cell-based; conditions: dose 100-1000 nM, DDE = dose-dependent effect
CWR22R [31] = assay: Induction of apoptosis in AR-positive human 22Rv1 cells assessed as increase in late apoptotic cells measured after 72 hrs by Annexin V-FITC/PI staining based flow cytometry method; type: functional, cell-based; conditions: dose 100-1000 nM, DDE = dose-dependent effect
CWR22R [32] = assay: Induction of apoptosis in AR-positive human 22Rv1 cells assessed as upregulation of cleaved PARP level measured after 72 hrs by Annexin V-FITC/PI staining based flow cytometry method; type: functional, cell-based; conditions: dose 100-1000 nM, DDE = dose-dependent effect

CC[C@@H]1c2nnc(C)n2-c2cnc(Nc3ccc(C(=O)NC4CCN(C(=O)COc5cccc6c5C(=O)N(C5CCC(=O)NC5=O)C6=O)CC4)cc3OC)nc2N1CC1CCCCC1 (stereo not given in full)
Activity [1]: Tde
IC50 [2]: 985 nM
IC50 (MV4-11): 3 nM
IC50 (DU-145): 10000 nM
IC50 (PC-3): 2440 nM
IC50 (VCaP [3]): 16 nM
IC50 (LNCaP [4]): 21 nM
inhibition (INH) (CWR22R [5]): 100%
Activity [6]: Tde
Activity [7]: Tde
Activity (LNCaP [8]): Tde
Activity (CWR22R [9]): Tde
Activity (VCaP [10]): Tde
Activity [11]: Dde
Activity (VCaP [12]): Dde
Activity [13]: Tde
Activity [14]: Dde
Activity (VCaP [15]): Active
inhibition [16]: Active
Activity [17]: Active
Activity (VCaP [18]): Active
Activity (VCaP [19]): Active
Activity (VCaP [20]): Active
Activity (VCaP [21]): Active
Activity (VCaP [22]): Active
Activity (VCaP [23]): Active
Activity (CWR22R [24]): Active
Activity (CWR22R [25]): Active
Activity (CWR22R [26]): Active
Activity (CWR22R [27]): Active
Activity (CWR22R [28]): Active
Activity (CWR22R [29]): Active
Activity (CWR22R [30]): Dde
Activity (CWR22R [31]): Dde
Activity (CWR22R [32]): Dde
